{"source": "patent US20120231098A1", "about": "“Weight loss composition” (priority 2011, published 2012)", "origin": "cited, not measured here", "conditions": "by increasing the utilization of fat stores in the body during exercise"}
{"smiles": "Cn1c(=O)c2c(ncn2C)n(C)c1=O", "note": "[Caffeine, caffeine]", "values": [{"measurement": "increase in endurance", "result": "≥ 15", "unit": "%"}]}
